{"source": "patent US20230190787A1", "about": "“SYSTEM AND METHOD FOR TREATING CARDIAC TOXICITY VIA GUT MICROBIOTA” (priority 2022, published 2023)", "format_in_all_cases": "in vivo, Wistar albino rats", "key": {"[1]": {"system": "Dox induced cardiac toxicity/remodeling", "assay": "Blood analysis: serum biochemical levels (auto analyzer/ELISA kits) in doxorubicin induced cardiac toxicity/remodelling rats", "description": "Zinc Quantification, rat high sensitivity C-Reactive Protein, Fibrinogen invitro, IL-6, IL-10, Renin, Ang II, and CKMB Enzyme linked Immunosorbent Assay (ELISA) rat kits are procured from Abcam, Cambridge, United Kingdom.\nSufficient experimental animals Wistar albino rats approximately average weight of 170±20 g are obtained. The protocol is approved by Institutional Animal Ethical Committee, all animals are acclimatized for 7 days standard laboratory condition of 12-hr light/dark cycle, maintained at temperature of 22±2° C. with relative humidity of 50±5% in department of Biochemistry, Faculty of Science.\n(§1) All the animals are randomly divided into 4 groups with six animals in each: 1) Normal control (NC), fed with standard semi purified diet along with normal drinking water, 2) Zam control (ZC) fed with standard semi purified diet along with Zam water p.o at libitum, 3) Doxorubicin or Dox control (DC), animals are injected with Dox (1 mg/kg bw) i.p. on first day of protocol fed with standard semi purified diet along with normal drinking water and 4) Dox+Zam (DZ) group injected with Dox (1 mg/kg bw) i.p. on first day of protocol, and treated with Zam water p.o at libitum, for 28 days. All the animals are on semi purified diet throughout the study period. Body weight of rats are recorded weekly and consumption of food and water is measured daily basis.\n(§2) Physiological and behavioural changes are monitored in experimental rats for entire period of protocol. The protocol is terminated on 29th day, animals are sedated with diethyl ether for further process of organ harvesting and blood collection. Abdominal artery, punctured and blood is collected in centrifugal tubes approximately 3 ml/100 g body weight, allowed to clot at laboratory temperature for 30 minutes, centrifuged at 4° C. for 15 minutes at 4500 rpm. The supernatant serum, transferred to 1.5 ml tubes and kept at −80° C. for further analysis. Harvested heart and kidneys are weight, preserved in 10% phosphate buffered formaldehyde for histopathological analysis.\nThe serum biochemical levels of Zinc, Fibrinogen, Renin, IL-10,11-6, CRP, Ang II, and CKMB are analyzed by standard auto analyzer kits-Zinc quantification kit, Rat Fibrinogen ELISA kit, Rat Renin ELISA kit, IL-10 ELISA kit, I1-6 ELISA kit, CRP ELISA kit, Ang II ELISA kit, and CKMB ELISA kit from Abcam Cambridge, United Kingdom."}, "[2]": {"system": "kidneys", "assay": "Histopathological analysis of kidney (H&E)", "settings": "DC group: Dox 1 mg/kg i.p., normal drinking water", "method": "as §1\nas §2, with “Harvested heart and kidneys are weight, preserved in 10% phosphate buffered formaldehyde for histopathological analysis.” left out"}, "[3]": {"system": "heart", "assay": "Histopathological analysis of heart (H&E)", "settings": "DC group: Dox 1 mg/kg i.p., normal drinking water", "method": "as §1\nas §2, with “Harvested heart and kidneys are weight, preserved in 10% phosphate buffered formaldehyde for histopathological analysis.” left out"}, "[4]": {"system": "Gut microbiota", "assay": "Gut microbiota analysis: 16S metagenomic analysis of stool DNA", "settings": "DC group: Dox 1 mg/kg i.p., normal drinking water", "method": "All the animals are randomly divided into 4 groups with six animals in each: 1) Normal control (NC), fed with standard semi purified diet along with normal drinking water, 2) Zam control (ZC) fed with standard semi purified diet along with Zam water p.o at libitum, 3) Doxorubicin or Dox control (DC), animals are injected with Dox (1 mg/kg bw) i.p. on first day of protocol fed with standard semi purified diet along with normal drinking water and 4) Dox+Zam (DZ) group injected with Dox (1 mg/kg bw) i.p. on first day of protocol, and treated with Zam water p.o at libitum, for 28 days. All the animals are on semi purified diet throughout the study period. Body weight of rats are recorded weekly and consumption of food and water is measured daily basis. Stool samples of rats are used to isolate the DNA by […] kit as per manufacturer's instructions. Briefly 250-300 mg of stool samples collected from lower intestine, in 2 ml tube weighted and thawed on ice. ASL buffer (1.5 ml) is added, vortexed for 3 minutes followed by incubation at 80° C. for 15 minutes. The incubated tubes are tapped every four minute and centrifuge at 14000 rpm for 15 minutes at room temperature. EX tablet is added to 1.5-2.0 ml of supernatant, followed by centrifugation for 5 minutes at 15000 rpm. The procedure continued with the addition of proteinase K (15 μl) and AL buffer, incubated for 10 minutes at 70° C. Approximately 300 μl of absolute alcohol or ethanol is added, centrifuged for 1 minute at 12000 rpm with addition of 500 μl of AW1 buffer to column above and centrifuge at 14000 rpm for 1 minute. The filtrate in collection tube is discarded, finally DNA is eluted and is evaluated on 1% agarose gel. The isolated sample of DNA is forwarded for 16S metagenomic analysis."}, "[5]": {"settings": "DC group: Dox 1 mg/kg i.p., normal drinking water"}}}
{"compound": "COc1cccc2c1C(=O)c1c(O)c3c(c(O)c1C2=O)C[C@@](O)(C(=O)CO)C[C@@H]3O[C@H]1C[C@H](N)[C@H](O)[C@H](C)O1", "note": "[Doxorubicin]", "values": [{"measurement": "Plasma CRP level", "setting": "[1]; DC group: Dox 1 mg/kg bw i.p. day 1, normal drinking water", "result": "13.40 ± 2.66", "unit": "mg/dL"}, {"measurement": "serum Zinc level", "setting": "[1]; DC group: Dox 1 mg/kg bw i.p. day 1, normal drinking water, day 29", "result": "0.55 ± 0.12", "unit": "µg/mL"}, {"measurement": "Ang II level", "setting": "[1]; [5]", "result": "16.00 ± 2.26", "unit": "nmol/mL/min"}, {"measurement": "CKMB level", "setting": "[1]; [5]", "result": "121.8±3.12", "unit": "U/L"}, {"measurement": "Fibrinogen concentration", "setting": "[1]; [5]", "result": "4.37±0.74"}, {"measurement": "IL-6", "setting": "[1]; [5]", "result": "3.36±1.32"}, {"measurement": "plasma renin level", "setting": "[1]; [5]", "result": "1.02 ± 0.38", "unit": "ng/mL/h"}, {"measurement": "IL-10", "setting": "[1]; DC group: Dox single dose 1 mg/kg body weight", "result": "3.73 ± 0.50", "unit": "pg/mL"}, {"measurement": "histopathology of kidneys", "setting": "[2]", "result": "severe pathological lesions with tubular degeneration, tubular cast and tubular necrosis with eosinophilic infiltration"}, {"measurement": "histopathological evaluation of cardiac tissue", "setting": "[3]", "result": "focal areas of myocardial cell degeneration with increased intracellular spaces, high fat deposits, inflammatory cell infiltration and disrupted tissue orientation"}, {"measurement": "Firmicutes population", "setting": "[4]", "result": 33, "unit": "%"}, {"measurement": "abundance of Bacteroidetes", "setting": "[4]", "result": 34, "unit": "%"}, {"measurement": "abundance of Muribaculaceae", "setting": "[4]", "result": 26, "unit": "%"}, {"measurement": "abundance of Proteobacteria", "setting": "[4]", "result": 17, "unit": "%"}, {"measurement": "abundance of Romboutsia", "setting": "[4]", "result": 2, "unit": "%"}]}
